Reference: patent US4829082A, “Pharmaceutical compositions for the treatment of skin diseases” (Nisshin Chemicals Co., Ltd., priority 1986, dated 1989)
“And” between values parts separate entries of the source, which are not always exact repeats. Equal values may be shown once.

Assays:
Acute toxicity in mice = conditions: mouse, in vivo
rats = experiment: Percutaneous subacute toxicity in rats; format: in vivo; conditions: lotions containing 0.5% and 1.5% of TOC ester
Method: Percutaneous subacute toxicity in rats
Tests were conducted for 30 days using lotions containing 0.5% and 1.5% of TOC ester, respectively.

guinea pigs = experiment: Appearance of skin allergy in guinea pigs (induction test); format: in vivo; conditions: challenge two weeks after sensitization, 0.1 ml acetone solution containing 0.05%, 0.10% and 0.20% of TOC ester
Method: Appearance of skin allergy in guinea pigs
Induction tests were conducted, wherein guinea pigs were sensitized with 0.1 ml of 30% chloroform solution, and two weeks after sensitization, the pigs were treated on the skin with 0.1 ml of acetone solution containing 0.05%, 0.10% and 0.20% of TOC ester, respectively.

eyes of rabbits = experiment: Irritation on eyes of rabbits; format: in vivo; conditions: physiological salt suspensions containing 0.05% and 0.5% of TOC ester
Source text: Irritation on eyes of rabbits

human being = experiment: Chafe on human being (Patch test); format: in vivo; conditions: cream containing 0.1% and 0.3% of TOC ester
Source text: Chafe on human being (Patch test)

experimental bedsore = experiment: Experimental bedsore of rabbits; format: in vivo, Japanese white male rabbits
Source text: (Experimental bedsore of rabbits)
Japanese white male rabbits weighing 2.5-4.4 kg were used.
An experimental bedsore was formed on the rabbits in accordance with the methods of Kosiak (Arch. Phys. Med. Rehabil., Vbl. 40, 62-69, 1959) and Fukawa et al. (Applied Pharmacology, Vol. 23, No. 6, 999-1011, 1982). The rabbits were anethetized with Nembutal® and fixed so that the shaved right trochanteric region of the rabbits was held horizontally, a pressure of 500-600 mmHg/cm^2 was applied to 2 cm^2 area of the skin in the shaved region, and the rabbits were held for 5-10 hours to allow development of bedsore. Two days after application of the pressure, occurrence of bedsore was confirmed.
The affective rabbits were distributed to two groups. One group (5 rabbits) was coated on the surface of bedsore region with a lotion containing 0.5% by weight of TOC ester by a brush once a day (said lotion being prepared from 900 parts by weight of water, 95 parts by weight of ethanol and 5 parts by weight of TOC ester). The other control group (4 rabbits) was coated once a day with only the base of the lotion (mixture of 900 parts of weight of water and 95 parts by weight of ethanol). One week after the treatment, a sheet of Japanese paper was applied to the bedsore area occurred in each rabbit. The injured area of said bedsore was transferred to the paper according to the etching method, and the transferred areas were measured by means of a planimeter.

bedsore = experiment: Bedsore, human patient (Test Example 2); format: in vivo; conditions: oil ointment containing 0.5% by weight of TOC ester on gauze
Source text: An oil ointment containing 0.5% by weight of TOC ester spread on a gauze was applied to the bedsore areas occurred in the ischium and whirlbone of a person lying in bed for a long time suffering from injury of myelon, said gauze being embedded in a depressed region of deep ulcer of bedsore after crumpling the gauze into a ball, and being applied as it was to a superficial region of the ulcer. The gauze was exchanged once or twice a day.

dermal ulcer = experiment: Dermal ulcer occurred in a rheumatic patient (Test Example 3); format: in vivo, human; conditions: same ointment as Test Example 2 (0.5%)
Source text: (Dermal ulcer occurred in a rheumatic patient)
The same ointment as used in Test Example 2 was applied directly or applied using a gauze over which said ointment had been spread, to a dermal ulcer occurred on a sacral region, sciatic tuber region, elbow head, inner and outer ankle regions and heel region of a person suffering from arthrorheumatism under hospital treatment.

burn ulcer = experiment: Burn ulcer, human patient (Test Example 4); format: in vivo; conditions: same ointment as Test Example 2 (0.5%), after one week
frostbite = experiment: Frostbite, human patient (Test Example 5); format: in vivo; conditions: same ointment as Test Example 2 (0.5%), about one week
[1] = system: ulcer produced after zoster; experiment: Zoster, human patient (Test Example 6); format: in vivo
Source text: To an ulcer produced after zoster had occurred on the neck through the shoulder of a person was applied a gauze over which the same ointment as used in Test Example 2 had been spread.

skin pruritus = experiment: Skin pruritus, human patient (Test Example 7); format: in vivo; conditions: same ointment as Test Example 2 (0.5%)
skin keratosis = experiment: Skin keratosis, human patient (Test Example 8); format: in vivo; conditions: same ointment as Test Example 2 (0.5%), three days after treatment
callosity = experiment: Callosity, human patient (Test Example 9); format: in vivo; conditions: lotion containing 0.5% by weight of TOC ester, about two weeks
eczema craquele = experiment: Eczema craquele (cracking and chaps), human patient (Test Example 10); format: in vivo; conditions: hydrophilic ointment containing 0.3% by weight of TOC ester
Source text: [Eczema craquele (cracking and chaps)]

housewife eczema = experiment: Housewife eczema, human patient (Test Example 11); format: in vivo; conditions: same hydrophilic ointment as Test Example 10 (0.3%), in a week
[2] = General statement on toxicity, side effects and healing effect

## CC(C=CC1=C(C)CCCC1(C)C)=CC=CC(C)=CC(=O)Oc1c(C)c(C)c2c(c1C)CCC(C)(CCCC(C)CCCC(C)CCCC(C)C)O2 (stereo not drawn) [TOC ester, tocopheryl retinoate]
Acute toxicity in mice; im
  LD50: > 2500 mg/kg
Acute toxicity in mice; ip
  LD50: > 10000 mg/kg
Acute toxicity in mice; po
  LD50: > 10000 mg/kg
Acute toxicity in mice; sc
  LD50: > 2500 mg/kg
rats; 30 days
  change in general symptoms, dermal symptoms and body weight: no change in general symptoms, dermal symptoms and body weight
rats; after 30 days
  change in blood and physiological examinations, anatomical observation, wet weight of organs, and pathological histological examination: no change was observed at all
Guinea pigs
  contact skin allergy: No contact skin allergy was observed
Eyes of rabbits
  irritation on eyes: no change was observed
Human being
  rubor or expansion (patch test): no rubor or expansion was observed at all
Experimental bedsore; lotion containing 0.5% TOC ester group, 5 rabbits, one week, control 0.907 ± 0.292
  Injured area difference, Average ± standard deviation: 1.82 ± 0.213 cm2
Experimental bedsore; lotion containing 0.5% TOC ester once a day, individual rabbits
  Injured area after one week: 1.30 cm2 and 0.98 cm2 and 0.70 cm2 and 0.09 cm2 and 0.23 cm2
Experimental bedsore; lotion containing 0.5% TOC ester, individual rabbits, before treatment
  Injured area at the initiation of treatment: 2.68 cm2 and 3.01 cm2 and 1.95 cm2 and 2.20 cm2 and 2.56 cm2
Experimental bedsore; lotion containing 0.5% TOC ester, individual rabbits, initiation minus after one week
  Injured area, Difference: 1.38 cm2 and 2.03 cm2 and 1.25 cm2 and 2.11 cm2 and 2.33 cm2
Experimental bedsore; lotion containing 0.5% by weight of TOC ester, once a day, one week, 5 rabbits
  reduction in the injured area of bedsore: marked reduction in the injured area of bedsore
bedsore; about one month
  bottom region of deep ulcer, buildup of flesh owing to granulation: marked buildup of flesh owing to granulation at the bottom region of deep ulcer
  improvement in cuticularization along the circumference of ulcer: a remarkable improvement in cuticularization
  width of cuticularization along the circumference of ulcer: about 5 mm
bedsore; after one week
  superficial region of ulcer, epidermization: epidermization was observed on the superficial region of ulcer
bedsore; two weeks thereafter
  superficial region of ulcer, disappearance of sore and closure: sore disappeared from the superficial region of ulcer, and the epidermis was formed to close the sore region
Dermal ulcer; during treatment period
  adverse side effects: No adverse side effects was observed
Dermal ulcer; large ulcers, about three months
  proliferation of the granulation and epidermization: marked improvements in proliferation of the granulation and in epidermization
Dermal ulcer; small ulcers, about two weeks
  proliferation of the granulation and epidermization: marked improvements in proliferation of the granulation and in epidermization
Burn ulcer
  healing of burn ulcer: a remarkable improvement in healing of the ulcer
frostbite
  healing of frostbite: an improvement in healing of frostbite
[1]; same ointment as Test Example 2 (0.5%) on gauze, about one week
  healing of the ulcer after zoster: a marked improvement in healing of the ulcer
[1]; same ointment as Test Example 2 (0.5%), six months after the healing
  recurrence: no recurrence was observed
Skin pruritus; one day after treatment
  itching sensation: itching sensation ceased
Skin pruritus; three days after the treatment
  healing of skin pruritus: the skin pruritus healed perfectly
Skin keratosis
  healing of skin keratosis: a marked improvement in healing of the disease
callosity
  improvement of callosity: an improvement such as softening of the callosity
Eczema craquele; during the period of treatment
  adverse side-effects: no adverse side-effects were observed
Eczema craquele; one month
  healing of eczema craquele: a marked improvement in healing of the disease
Eczema craquele; two months
  healing of eczema craquele: the disease perfectly healed
Housewife eczema
  healing of housewife eczema: a marked improvement in healing of the disease
[2]
  side effects: almost no side effects
  toxicity: extremely low in toxicity
